# “And” between values parts separate entries of the source, which are not always exact repeats. Equal values may be shown once. Toxic doses and inconclusive results are not listed.
# Test system: P388 leukemia ip, CD2F1 mice, survival T/C
# Test: NCI In Vivo Anticancer Drug Screen. Data for tumor model P388 Leukemia (intraperitoneal) in CD2F1 (CDF1) mice
# Details: endpoint: median survival time, higher = longer survival
# In short: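 Mice carrying the transplanted tumor received test compound or vehicle. Survival was recorded in each group, and the value is the treated-group measurement divided by that of the vehicle-treated control group.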
# [1] = dose: 6.25 mg/kg/injection, schedule: Q01DX005 (ip), vehicle: Klucel (hydroxypropylcellulose) (HPC)
# [2] = dose: 12.5 mg/kg/injection, schedule: Q01DX005 (ip), vehicle: Klucel (hydroxypropylcellulose) (HPC)
# [3] = dose: 50.0 mg/kg/injection, schedule: Q01DX009 (ip), vehicle: Klucel (hydroxypropylcellulose) (HPC)
# [4] = dose: 100.0 mg/kg/injection, schedule: Q01DX009 (ip), vehicle: Klucel (hydroxypropylcellulose) (HPC)
# [5] = dose: 200.0 mg/kg/injection, schedule: Q01DX009 (ip), vehicle: Klucel (hydroxypropylcellulose) (HPC)
# [6] = dose: 50.0 mg/kg/injection, schedule: Q01DX009 (ip), vehicle: saline
# [7] = dose: 100.0 mg/kg/injection, schedule: Q01DX009 (ip), vehicle: saline
# [8] = dose: 100.0 mg/kg/injection, schedule: Q01DX009 (ip), vehicle: suspension in saline
# [9] = dose: 25.0 mg/kg/injection, schedule: Q01DX009 (ip), vehicle: saline with Tween-80
# [10] = dose: 50.0 mg/kg/injection, schedule: Q01DX009 (ip), vehicle: saline with Tween-80
# [11] = dose: 100.0 mg/kg/injection, schedule: Q01DX009 (ip), vehicle: saline with Tween-80
# [12] = dose: 12.5 mg/kg/injection, schedule: Q01DX009 (ip), vehicle: saline with Tween-80
# [13] = dose: 50.0 mg/kg/injection, schedule: Q01DX005 (ip), vehicle: saline with Tween-80
# [14] = dose: 100.0 mg/kg/injection, schedule: Q01DX005 (ip), vehicle: saline with Tween-80
# [15] = dose: 200.0 mg/kg/injection, schedule: Q01DX005 (ip), vehicle: saline with Tween-80
# [16] = dose: 50.0 mg/kg/injection, schedule: Q01DX009 (ip), vehicle: suspension in saline
# [17] = dose: 200.0 mg/kg/injection, schedule: Q01DX009 (ip), vehicle: suspension in saline
# [18] = dose: 50.0 mg/kg/injection, schedule: Q01DX005 (ip), vehicle: saline
# [19] = dose: 6.25 mg/kg/injection, schedule: Q01DX009 (ip), vehicle: saline with Tween-80
structure (smiles),measurement,setting,value
COC(=O)[C@@]12OC[C@@]34[C@@H](CC5=C(C)C(=O)C(O)=C[C@]5(C)[C@H]3[C@@H](O)[C@@H]1O)OC(=O)[C@H](OC(=O)/C=C(\C)C(C)(C)OC(C)=O)[C@@H]24,T/C,"dose: 0.25 mg/kg/injection, schedule: Q01DX009 (ip), vehicle: saline + alcohol",106 % of control
same,T/C,"dose: 0.5 mg/kg/injection, schedule: Q01DX009 (ip), vehicle: saline + alcohol",110 % of control and 123 % of control
same,T/C,"dose: 4.0 mg/kg/injection, schedule: Q01DX009 (ip), vehicle: saline + alcohol",157 % of control and 159 % of control
same,T/C,"dose: 8.0 mg/kg/injection, schedule: Q01DX009 (ip), vehicle: saline + alcohol",175 % of control
CN(C)CC1CCC1N1c2ccccc2Sc2ccc(Cl)cc21 (stereo not given),T/C,"dose: 50.0 mg/kg/injection, schedule: Q04DX003 (ip), vehicle: Klucel (hydroxypropylcellulose) (HPC)",105 % of control
same,T/C,"dose: 100.0 mg/kg/injection, schedule: Q04DX003 (ip), vehicle: Klucel (hydroxypropylcellulose) (HPC)",100 % of control
same,T/C,"dose: 200.0 mg/kg/injection, schedule: Q04DX003 (ip), vehicle: Klucel (hydroxypropylcellulose) (HPC)",98 % of control
Cc1ccc(-n2c(C)nc3[nH]cc(C)c3c2=N)cc1,T/C,[1],101 % of control
same,T/C,[2],99 % of control
same,T/C,"dose: 25.0 mg/kg/injection, schedule: Q01DX005 (ip), vehicle: Klucel (hydroxypropylcellulose) (HPC)",99 % of control
CC(CC(=O)c1ccccc1)C(Sc1ccccc1)(Sc1ccccc1)Sc1ccccc1 (stereo not given),T/C,[3],93 % of control
same,T/C,[4],90 % of control
same,T/C,[5],89 % of control
Fc1cccc(NC(=S)SCc2ccc(Cl)cc2)c1,T/C,"dose: 25.0 mg/kg/injection, schedule: Q01DX009 (ip), vehicle: saline",102 % of control
same,T/C,[6],105 % of control
same,T/C,[7],105 % of control
same,T/C,[8],103 % of control
C/C=C\n1ccccc1=O,T/C,[6],107 % of control
same,T/C,[7],113 % of control
same,T/C,"dose: 200.0 mg/kg/injection, schedule: Q01DX009 (ip), vehicle: saline",109 % of control
FC(F)(F)C1(C(F)(F)F)O[Te]2(OC1(C(F)(F)F)C(F)(F)F)OC(C(F)(F)F)(C(F)(F)F)C(C(F)(F)F)(C(F)(F)F)O2,T/C,[1],100 % of control
same,T/C,[2],112 % of control
Cc1ccc(C(=O)[O][Hg][CH2]C2COC([CH2][Hg][O]C(=O)c3ccc(C)cc3)CO2)cc1 (stereo not given),T/C,[9],116 % of control
same,T/C,[10],113 % of control
same,T/C,[11],100 % of control
NP(=O)(Oc1ccccc1)Oc1ccccc1,T/C,"dose: 6.23 mg/kg/injection, schedule: Q01DX009 (ip), vehicle: saline with Tween-80",95 % of control
same,T/C,[12],100 % of control
same,T/C,[9],95 % of control
Clc1c2ccccc2nc2ccccc12,T/C,[13],98 % of control
same,T/C,[14],91 % of control
same,T/C,[15],98 % of control
CCCNC(=O)OCC1=C(COC(=O)NCCC)C2OC1C(C(=O)OC)=C2C(=O)OC,T/C,"dose: 12.5 mg/kg/injection, schedule: Q01DX009 (ip), vehicle: distilled water + Tween-80",89 % of control
same,T/C,"dose: 25.0 mg/kg/injection, schedule: Q01DX009 (ip), vehicle: distilled water + Tween-80",93 % of control
same,T/C,"dose: 50.0 mg/kg/injection, schedule: Q01DX009 (ip), vehicle: distilled water + Tween-80",86 % of control
S=C(Nc1ccc(I)cc1)SCc1ccc(Cl)cc1,T/C,[16],104 % of control
same,T/C,[8],111 % of control
same,T/C,[17],119 % of control
O=C(CC(c1ccncc1)C(C(=O)c1ccc(Cl)cc1)C(c1ccncc1)C(C(=O)c1ccc(Cl)cc1)C(O)c1ccncc1)c1ccc(Cl)cc1 (stereo not given),T/C,[13],101 % of control
same,T/C,[14],93 % of control
same,T/C,[15],93 % of control
O=C(O)c1nnn(-c2ccccc2)n1,T/C,[18],101 % of control
same,T/C,"dose: 100.0 mg/kg/injection, schedule: Q01DX005 (ip), vehicle: saline",101 % of control
same,T/C,"dose: 200.0 mg/kg/injection, schedule: Q01DX005 (ip), vehicle: saline",106 % of control
CC1=NNB(O)c2ccsc21,T/C,[10],98 % of control
same,T/C,[11],99 % of control
same,T/C,"dose: 200.0 mg/kg/injection, schedule: Q01DX009 (ip), vehicle: saline with Tween-80",108 % of control
COc1ccc2c(c1)C(CCN(C)C)(CCN(C)C)C(=O)CC2,T/C,"dose: 12.5 mg/kg/injection, schedule: Q01DX005 (ip), vehicle: saline",94 % of control
same,T/C,"dose: 25.0 mg/kg/injection, schedule: Q01DX005 (ip), vehicle: saline",95 % of control
same,T/C,[18],104 % of control and 94 % of control
O=C(/C=C/c1ccccc1)C1CCCCC1,T/C,[3],107 % of control
same,T/C,[4],107 % of control
same,T/C,[5],106 % of control
OC(c1cc2cc(Cl)ccc2c2cc(C(F)(F)F)ccc12)C1CCCCN1 (stereo not given),T/C,[19],106 % of control
same,T/C,[12],106 % of control
COc1ccc(-n2c(=O)c(N=Nc3ccccc3C)c(O)n(-c3ccccc3Cl)c2=S)cc1,T/C,"dose: 100.0 mg/kg/injection, schedule: Q01DX001 (ip), vehicle: Klucel (hydroxypropylcellulose) (HPC)",100 % of control
same,T/C,"dose: 200.0 mg/kg/injection, schedule: Q01DX001 (ip), vehicle: Klucel (hydroxypropylcellulose) (HPC)",99 % of control
same,T/C,"dose: 400.0 mg/kg/injection, schedule: Q01DX001 (ip), vehicle: Klucel (hydroxypropylcellulose) (HPC)",95 % of control
COc1cc(-c2nn(CN3CCN(Cn4nc(-c5cc(OC)c(OC)c(OC)c5)oc4=S)CC3)c(=S)o2)cc(OC)c1OC,T/C,"dose: 50.0 mg/kg/injection, schedule: Q01DX005 (ip), vehicle: Klucel (hydroxypropylcellulose) (HPC)",97 % of control
same,T/C,"dose: 100.0 mg/kg/injection, schedule: Q01DX005 (ip), vehicle: Klucel (hydroxypropylcellulose) (HPC)",87 % of control
same,T/C,"dose: 200.0 mg/kg/injection, schedule: Q01DX005 (ip), vehicle: Klucel (hydroxypropylcellulose) (HPC)",93 % of control
COc1ccccc1C1=NC(C)(C)CO1,T/C,[13],99 % of control
same,T/C,[14],94 % of control
same,T/C,[15],91 % of control
CN1CCC2(CC1)COCc1ccccc12,T/C,[9],101 % of control
same,T/C,[10],104 % of control
CCN(Cc1ccc(CN(CC)C(=O)c2c(-c3ccccc3)noc2C)cc1)C(=O)c1c(-c2ccccc2)noc1C,T/C,[16],90 % of control
same,T/C,[8],92 % of control
same,T/C,[17],86 % of control and 94 % of control
C(=N\Nc1nnc2c3cccnc3c3ccccc3c2n1)/c1ccc2c(c1)OCO2,T/C,"dose: 100.0 mg/kg/injection, schedule: Q01DX001 (ip), vehicle: saline with Tween-80",108 % of control
same,T/C,"dose: 200.0 mg/kg/injection, schedule: Q01DX001 (ip), vehicle: saline with Tween-80",104 % of control
CCCCCNS(=O)(=O)c1ccc(C)cc1,T/C,"dose: 50.0 mg/kg/injection, schedule: Q01DX009 (ip), vehicle: saline + alcohol",107 % of control
same,T/C,"dose: 100.0 mg/kg/injection, schedule: Q01DX009 (ip), vehicle: saline + alcohol",107 % of control
same,T/C,"dose: 200.0 mg/kg/injection, schedule: Q01DX009 (ip), vehicle: saline + alcohol",118 % of control
same,T/C,"dose: 400.0 mg/kg/injection, schedule: Q01DX009 (ip), vehicle: saline + alcohol",101 % of control
CN1C(=O)c2ccccc2NC(=O)C12O[C@@H]2c1cccc(O)c1 (stereo not given in full),T/C,"dose: 1.63 mg/kg/injection, schedule: Q01DX005 (ip), vehicle: DMSO",106 % of control
same,T/C,"dose: 3.25 mg/kg/injection, schedule: Q01DX005 (ip), vehicle: DMSO",106 % of control
same,T/C,"dose: 6.5 mg/kg/injection, schedule: Q01DX005 (ip), vehicle: DMSO",113 % of control
same,T/C,"dose: 13.0 mg/kg/injection, schedule: Q01DX005 (ip), vehicle: DMSO",100 % of control
CCN1CC2(C)CCC(OC)C34C5CC6CCC(O)(C5C(=O)O6)C(C(OC(C)=O)C23)C14 (stereo not given),T/C,"dose: 3.0 mg/kg/injection, schedule: Q01DX009 (ip), vehicle: saline",100 % of control
same,T/C,"dose: 6.0 mg/kg/injection, schedule: Q01DX009 (ip), vehicle: saline",101 % of control
same,T/C,"dose: 12.0 mg/kg/injection, schedule: Q01DX009 (ip), vehicle: saline",98 % of control
COc1ccc(OC)c(N2C(=O)C=C(C)C2(O)CC#N)c1 (stereo not given),T/C,[19],100 % of control
same,T/C,[12],95 % of control
same,T/C,[9],98 % of control
same,T/C,[10],98 % of control
